Laboratory results taken from patent US20150225369A1, “DDR2 INHIBITORS FOR THE TREATMENT OF OSTEOARTHRITIS” (Merck Patent GmbH, priority 2012, published 2015).

Target: T1, His-tagged human recombinant DDR-2 kinase domain (His-TEV-DDR2 467-855 aa) (Homo sapiens, UniProt Q16832)
T1 construct: His-TEV-DDR2 467-855 aa
T1 sequence (Q16832 467-855): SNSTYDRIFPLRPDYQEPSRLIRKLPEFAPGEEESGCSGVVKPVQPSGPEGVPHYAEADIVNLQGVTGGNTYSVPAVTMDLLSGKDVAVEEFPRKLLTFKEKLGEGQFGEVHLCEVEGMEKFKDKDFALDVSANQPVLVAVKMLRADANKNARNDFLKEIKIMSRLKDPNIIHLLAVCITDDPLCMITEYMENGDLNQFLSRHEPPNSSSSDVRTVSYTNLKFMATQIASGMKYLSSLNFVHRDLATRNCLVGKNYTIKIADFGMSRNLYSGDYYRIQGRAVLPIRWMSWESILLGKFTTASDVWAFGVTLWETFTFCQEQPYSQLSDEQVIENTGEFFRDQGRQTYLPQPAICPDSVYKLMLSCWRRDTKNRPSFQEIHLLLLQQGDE
Assay: Autophosphorylation assay for biochemical activity testing of DDR2 (HTRF)
Conditions: 4 nM DDR2 kinase domain, 150 μM ATP, 150 min at 22° C.
Description: The autophosphorylation assay was run in two steps: the enzymatic reaction in which His-tagged DDR2 with ATP as co-substrate phosphorylates itself and the detection reaction where a time resolved FRET between XL665® labelled anti-6His antibody bound to the His-tag of the enzyme and cryptate labelled anti-phospho-Tyrosine-antibody (PT66) bound the phosphorylated Tyrosine residue of DDR2 was analysed. The autophosphorylation activity was detectable directly via the increase in HTRF signal.
The autophosphorylation assay was performed as 1536 well or 384 well HTRF® (Cisbio, Codolet, France) assay format in Greiner low volume medium binding 384-well microtiter plates and was used for high throughput screen. […] The ratio of the emission signals was determined. The full value used was the inhibitor-free reaction.

SMILES	IC50
CNC(=O)c1cc(Oc2ccc(CNC(=O)Nc3cccnc3Cl)cc2)ccn1 [compound 16]	11000 nM
CNC(=O)c1cc(Oc2ccc(CNC(=O)Nc3ccc(C)cn3)cc2C)ccn1 [compound 13]	780 nM
CNC(=O)c1cc(Oc2ccc(COC(=O)Nc3cc(C(F)(F)F)ccn3)cc2)ccn1 [compound 3]	33 nM
Cn1cc(C(F)(F)F)cc(NC(=O)NCc2ccc(Oc3ccnc4ccccc34)cc2)c1=O [compound 9]	51 nM

Same assay, conditions: biochemical DDR2 autophosphorylation

SMILES	IC50
CNC(=O)c1cc(Oc2ccc(CNC(=O)Nc3cc(C)c(Cl)cc3OCCN3CCCC3)cc2)ccn1 [compound 116, 4-(4-{3-[4-Chloro-5-methyl-2-(2-pyrrolidin-1-yl-ethoxy)-phenyl]-ureidomethyl}-phenoxy)-pyridine-2-carboxylic acid methylamide]	410 nM
O=C(NCc1ccc(Oc2ccncc2)cc1)Nc1ccc(C(F)(F)F)cc1 [compound 21]	2000 nM
CNC(=O)c1cc(Oc2ccc(CNC(=O)Nc3cc(C(F)(F)F)c(Cl)cc3OCCNS(C)(=O)=O)cc2)ccn1 [compound 194, 4-(4-{3-[4-Chloro-2-(2-methanesulfonylamino-ethoxy)-5-trifluoromethyl-phenyl]-ureidomethyl}-phenoxy)-pyridine-2-carboxylic acid methylamide]	64 nM
O=C(NCc1ccc(Oc2ccncc2)cc1)Nc1cc(Cl)ccc1Cl [compound 10]	270 nM
CCN(CC)CCOc1cc(Cl)c(C)cc1NC(=O)NCc1ccc(Oc2ccnc(C(=O)NC)c2)c(C)c1 [compound 136, 4-(4-{3-[4-Chloro-2-(2-diethylamino-ethoxy)-5-methyl-phenyl]-ureidomethyl}-2-methyl-phenoxy)-pyridine-2-carboxylic acid methylamide]	390 nM
CNC(=O)c1cc(Oc2ccc(CNC(=O)Nc3cc(C(F)(F)F)ccc3OC3CCNCC3)cc2)ccn1 [compound 115, 4-(4-{3-[2-(Piperidin-4-yloxy)-5-trifluoromethyl-phenyl]-ureidomethyl}-phenoxy)-pyridine-2-carboxylic acid methylamide]	20 nM
O=C(NCc1ccc(Oc2ccncc2)cc1)Nc1ccc(Br)cc1 [compound 9]	3800 nM
CNC(=O)c1cc(Oc2ccc(CNC(=O)Nc3cc(C)c(Cl)cc3OCCN3CCNCC3)cc2)ccn1 [compound 120, 4-(4-{3-[4-Chloro-5-methyl-2-(2-piperazin-1-yl-ethoxy)-phenyl]-ureidomethyl}-phenoxy)-pyridine-2-carboxylic acid methylamide]	176 nM
O=C(NCc1ccc(Oc2ccncc2)cc1)Nc1ccc(Br)c(C(F)(F)F)c1 [compound 64, 1-(4-Bromo-3-trifluoromethyl-phenyl)-3-[4-(pyridin-4-yloxy)-benzyl]-urea]	1700 nM
CNC(=O)c1cc(Oc2ccc(CNC(=O)Nc3cc(Cl)ccc3OC)c(C)c2)ccn1 [compound 104, 4-{4-[3-(5-Chloro-2-methoxy-phenyl)-ureidomethyl]-3-methyl-phenoxy}-pyridine-2-carboxylic acid methylamide]	270 nM
CNC(=O)c1cc(Oc2ccc(CNC(=O)Nc3ccccc3OC)cc2)ccn1 [compound 14]	1900 nM
CSc1cccc(NC(=O)NCc2ccc(Oc3ccncc3)cc2)c1 [compound 34]	5500 nM
COc1ccc(C(F)(F)F)cc1NC(=O)NCc1ccc(Oc2ccncc2)cc1 [compound 62, 1-(2-Methoxy-5-trifluoromethyl-phenyl)-3-[4-(pyridin-4-yloxy)-benzyl]-urea]	2 nM
CNC(=O)c1cc(Oc2ccc(CNC(=O)Nc3cc(Cl)cnc3Cl)cc2)ccn1 [compound 93, 4-{4-[3-(2,5-Dichloro-pyridin-3-yl)-ureidomethyl]-phenoxy}-pyridine-2-carboxylic acid methylamide]	42 nM
CNC(=O)c1cc(Oc2ccc(CNC(=O)Nc3cnc4ccccc4c3)cc2)ccn1 [compound 97, 4-{4-[(3-Quinolin-3-yl-ureido)-methyl]-phenoxy}-pyridine-2-carboxylic acid methylamide]	290 nM
O=C(NCc1ccc(Oc2ccncc2)cc1)Nc1cccc(OC(F)(F)F)c1 [compound 65, 1-[4-(Pyridin-4-yloxy)-benzyl]-3-(3-trifluoromethoxy-phenyl)-urea]	35 nM
CNC(=O)c1cc(Oc2ccc(CNC(=O)Nc3cc(Cl)c(C)cc3OC)cc2F)ccn1 [compound 216, 4-{4-[3-(5-Chloro-2-methoxy-4-methyl-phenyl)-ureidomethyl]-2-fluoro-phenoxy}-pyridine-2-carboxylic acid methylamide]	43 nM
CNC(=O)c1cc(Oc2ccc(CNC(=O)Nc3cc(Cl)c(C)cc3OCCN)cc2)ccn1 [compound 176, 4-(4-{3-[2-(2-Amino-ethoxy)-5-chloro-4-methyl-phenyl]-ureidomethyl}-phenoxy)-pyridine-2-carboxylic acid methylamide]	27 nM
CNC(=O)c1cc(Oc2ccc(CNC(=O)Nc3cc(C(F)(F)F)ccc3OC)cc2F)ccn1 [compound 217, 4-{2-Fluoro-4-[3-(2-methoxy-5-trifluoromethyl-phenyl)-ureidomethyl]-phenoxy}-pyridine-2-carboxylic acid methylamide]	21 nM
O=C(NCc1ccc(Oc2ccncc2)cc1)Nc1cccc(C(F)(F)F)c1 [compound 4]	36 nM
CCOc1ccc(C(F)(F)F)cc1NC(=O)NCc1ccc(Oc2ccnc(C(=O)NC)c2)cc1 [compound 230, 4-{4-[3-(2-Ethoxy-5-trifluoromethyl-phenyl)-ureidomethyl]-phenoxy}-pyridine-2-carboxylic acid methylamide]	89 nM
CNC(=O)c1cc(Oc2ccc(CNC(=O)Nc3cc(C(F)(F)F)ccc3OC(C)(C)C(N)=O)cc2)ccn1 [compound 199, 4-(4-{3-[2-(1 -Carbamoyl-1-methyl-ethoxy)-5-trifluoromethyl-phenyl]-ureidomethyl}-phenoxy)-pyridine-2-carboxylic acid methylamide]	≥ 100000 nM
COc1ccc(NC(=O)NCc2ccc(Oc3ccncc3)cc2)cc1 [compound 17]	13000 nM
Cc1ccc(Cl)cc1NC(=O)NCc1ccc(Oc2ccncc2)cc1 [compound 50, 1-(5-Chloro-2-methyl-phenyl)-3-[4-(pyridin-4-yloxy)-benzyl]-urea]	1700 nM
CNC(=O)c1cc(Oc2ccc(CNC(=O)Nc3cc(C(F)(F)F)ccc3OC)cc2)ccn1 [compound 63, 4-{4-[3-(2-Methoxy-5-trifluoromethyl-phenyl)-ureidomethyl]-phenoxy}-pyridine-2-carboxylic acid methylamide]	61 nM
CNC(=O)c1cc(Oc2ccc(CNC(=O)Nc3cc(C)c(Cl)cc3OCCN3CCOCC3)c(C)c2)ccn1 [compound 133, 4-(4-{3-[4-Chloro-5-methyl-2-(2-morpholin-4-yl-ethoxy)-phenyl]-ureidomethyl}-3-methyl-phenoxy)-pyridine-2-carboxylic acid methylamide]	2000 nM
CNC(=O)c1cc(Oc2ccc(CNC(=O)Nc3cc(C)c(Cl)cc3OC)cc2C)ccn1 [compound 119, 4-{4-[3-(4-Chloro-2-methoxy-5-methyl-phenyl)-ureidomethyl]-2-methyl-phenoxy}-pyridine-2-carboxylic acid methylamide]	210 nM
O=C(NCc1ccc(Oc2ccncc2)cc1)Nc1ccc(Cl)cc1 [compound 16]	5900 nM
O=C(NCc1ccc(Oc2ccncc2)cc1)Nc1ccccc1Br [compound 48, 1-(2-Bromo-phenyl)-3-[4-(pyridin-4-yloxy)-benzyl]-urea]	≥ 100000 nM
